Bounds are passed on as bounds.

The term EC50 denotes the concentration that produces a half-maximal response.

The subject of the experiment is EV71 virus strain Shenzhen/120F1/09. The experiment in a line: EV71 in-vitro cytopathic effect (CPE) test. Conditions: RD cells, EV71 100 TCID50, 3 days, CCK8 readout; read-out: EC50 by EC71 CPE test, EV71. The format is cell-based, RD cells of human rhabdomyoma. The method, then:
Test of EV71 In-Vitro Cytopathic Effect (CPE) To test the in-vitro antiviral activity and cytotoxicity of a compound to HFMD virus EV71 by means of cytopathic effect (CPE) test. […] Cell line: RD cells of human rhabdomyoma • 3. Cell culture media: DMEM medium added with 10% serum, Penicillin/Streptomycin and L-[…]×) • 4. […] Cell inoculation: digest off the RD cells from the attached state, then dilute them with culture medium to a density of 80000/ml and inoculate 100 μl into the micro wells the 96-well plate. • 2. Dilution of compound: • Step 1: prepare the dry powder of a compound to test into a 10 mM solution in DMSO. Then dilute the compound by three times to eight concentration points. Dilute the reference compounds with the same method. • Step 2: further dilute the diluted solution of the compound in DMSO with cell culture medium. Add 10 μl DMSO solution for each well into 240 μl culture medium. • 3. Add the diluted compound solution by 50 μl each well into the 96-well plate inoculated with cells (double holes, final concentration of DMSO is 1%). • 4. Dilution of virus: dilute EV71 virus solution by 10000 times to a concentration of 100 TCID50/50 μl/. Add the diluted virus solution by 50 μl each well into the 96-well plate. Prepare another 96-well plate to replace the virus with culture medium and similarly inoculate the cells. Add the compound to test the toxicity of compound on cells. • 5. Cultivate the 96-well plate 3 days at the conditions of 37° C. and 5% CO2. • 6. EC50 and CC50 tests: add the cellular activity test reagent CCK8 into the micro-wells by 20 μl/well. Use ELIASA to read the absorbancy at the wavelength of 450 nm and 630 nm. • 7.
In general terms: Protection from cytopathic effect is a common read-out in antiviral testing.

As for “(S,E)-2-(2-aminopyridin-4-yl)-5-(5-((1-(ethoxy-imino)-2,3-dihydro-1H-inden-5-yl)-oxy)-3-methylpentyl)-1,2,5-thiadiazolidine-1,1-dioxide and (R,E)-2-(2-aminopyridin-4-yl)-5-(5-((1-(ethoxy-imino)-2,3-dihydro-1H-inden-5-yl)-oxy)-3-methylpentyl)-1,2,5-thiadiazolidine-1,1-dioxide [Embodiment 29]”, the half-maximal effective concentration (EC50) is < 50 nM.

For the origin of these results see US9988361B2, “Anti-enterovirus 71 thiadiazolidine derivative” (JIANGSU KANION PHARMACEUTICAL CO. LTD, priority 2014, dated 2018).
